Source: EP4745137A1 (Gluetacs Therapeutics (Shanghai) Co., Ltd., priority 2023, dated 2025)
Like-named read-outs stand apart in the source and are kept apart here.

Key:
CK1α = molecular target: T1, CK1α (Homo sapiens, UniProt P48729+Q96SW2); test: Western-blot assay of substrate protein degradation in hPBMCs, CK1α; format: cell-based; settings: 24 hours of compound treatment, 50 nM and 500 nM tested (concentration behind the class not stated)
T1 construct: endogenous in cells; host or cells: hPBMCs (Milecell Biotechnologies)

MV-4-11 = test: Tumor cell proliferation inhibition (CellTiter-Meiluncell Luminescent Cell Viability Assay), MV-4-11
Protocol: The tumor cells used herein were cultured in a cell culture medium listed in table 2 at 37°C in an incubator with 5% CO2. Prior to experimentation, all cell lines used were correctly identified by STR profiling, and tested negative for mycoplasma contamination using a mycoplasma detection kit through routine screenings.
On the following day, the test compounds of the present disclosure were subjected to serial dilution. […] Subsequently, 0.5 µL of the test compound dilution was transferred into the 96-well plate containing the cells, with each well containing 100 µL of cell culture medium. […] Into the 96-well plate, the diluted test compounds and corresponding detection reagents were added, resulting in final test compound concentrations of 500 nM and 10 nM, respectively.
After the cells were treated with the compounds of the present disclosure for a specified period (the treatment durations were shown in Table 3), the cell viability assay reagent was added to the culture medium according to the kit's instructions to determine cell viability. […] All controls were treated using the same procedure as the compounds of the present disclosure. The growth inhibition curves for the compounds of the present disclosure were plotted using Prism GraphPad software, and the IC50 values were calculated therefrom.

IKZF1 = molecular target: T2, IKZF1 (Homo sapiens, UniProt Q13422+Q96SW2); test: Western-blot assay of substrate protein degradation in hPBMCs, IKZF1; format: cell-based; settings: 24 hours of compound treatment, 50 nM and 500 nM tested (concentration behind the class not stated)
T2 construct: endogenous in cells; host or cells: hPBMCs (Milecell Biotechnologies)

GSPT1 = molecular target: T3, GSPT1 (Homo sapiens, UniProt P15170+Q96SW2); test: Western-blot assay of substrate protein degradation in hPBMCs, GSPT1; format: cell-based; settings: 24 hours of compound treatment, 50 nM and 500 nM tested (concentration behind the class not stated)
T3 construct: endogenous in cells; host or cells: hPBMCs (Milecell Biotechnologies)

IKZF3 = molecular target: T4, IKZF3 (Homo sapiens, UniProt Q96SW2+Q9UKT9); test: Western-blot assay of substrate protein degradation in hPBMCs, IKZF3; format: cell-based; settings: 24 hours of compound treatment, 50 nM and 500 nM tested (concentration behind the class not stated)
T4 construct: endogenous in cells; host or cells: hPBMCs (Milecell Biotechnologies)

IKZF2 = molecular target: T5, IKZF2 (Homo sapiens, UniProt Q96SW2+Q9UKS7); test: Western-blot assay of substrate protein degradation in hPBMCs, IKZF2; format: cell-based; settings: 24 hours of compound treatment, 50 nM and 500 nM tested (concentration behind the class not stated)
T5 construct: endogenous in cells; host or cells: hPBMCs (Milecell Biotechnologies)

WEE1 = molecular target: T6, WEE1 (Homo sapiens, UniProt P30291+Q96SW2); test: Western-blot assay of substrate protein degradation in hPBMCs, WEE1; format: cell-based; settings: 24 hours of compound treatment, 50 nM and 500 nM tested (concentration behind the class not stated)
T6 construct: endogenous in cells; host or cells: hPBMCs (Milecell Biotechnologies)

[1] = molecular target: T7, human Cereblon WT GST-tagged protein (Homo sapiens, UniProt Q96SW2); test: CRBN-binding affinity by HTRF (CEREBLON BINDING kit); settings: HTRF inhibitory activity, CEREBLON BINDING kit; read-out: HTRF IC50
T7 construct: purchased CISBIO 64BDCRBNPEH

[2] = Homo sapiens, MV4-11, read-out: inhibitory activity (IC50, nM) against tumor cells proliferation, MV-4-11

T4 sequence (Q9UKT9 whole entry): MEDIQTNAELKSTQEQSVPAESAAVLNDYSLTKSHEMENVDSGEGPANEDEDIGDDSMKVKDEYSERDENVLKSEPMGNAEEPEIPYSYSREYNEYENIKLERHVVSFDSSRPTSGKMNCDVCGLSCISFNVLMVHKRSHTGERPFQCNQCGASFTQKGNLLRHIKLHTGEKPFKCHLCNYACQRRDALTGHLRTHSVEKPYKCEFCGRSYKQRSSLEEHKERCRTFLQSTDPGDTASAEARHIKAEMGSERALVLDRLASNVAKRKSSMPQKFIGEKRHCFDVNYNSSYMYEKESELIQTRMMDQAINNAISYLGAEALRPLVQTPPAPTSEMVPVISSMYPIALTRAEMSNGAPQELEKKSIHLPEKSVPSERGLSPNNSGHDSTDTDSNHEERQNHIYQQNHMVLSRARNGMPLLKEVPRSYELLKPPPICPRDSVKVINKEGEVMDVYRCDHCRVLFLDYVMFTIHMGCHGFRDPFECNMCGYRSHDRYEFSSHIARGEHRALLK
T4 sequence (Q96SW2 whole entry): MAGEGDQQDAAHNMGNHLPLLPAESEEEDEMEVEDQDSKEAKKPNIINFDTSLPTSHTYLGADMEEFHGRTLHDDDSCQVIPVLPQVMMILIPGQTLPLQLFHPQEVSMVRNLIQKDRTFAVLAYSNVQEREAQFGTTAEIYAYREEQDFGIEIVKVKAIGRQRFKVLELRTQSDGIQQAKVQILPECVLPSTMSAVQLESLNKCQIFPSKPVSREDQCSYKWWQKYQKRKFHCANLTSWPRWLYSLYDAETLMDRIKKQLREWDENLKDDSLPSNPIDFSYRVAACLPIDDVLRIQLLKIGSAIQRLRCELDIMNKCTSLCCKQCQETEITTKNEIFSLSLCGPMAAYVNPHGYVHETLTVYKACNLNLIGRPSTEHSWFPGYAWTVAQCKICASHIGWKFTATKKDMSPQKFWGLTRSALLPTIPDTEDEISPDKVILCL
T4 sequence (Q16531 whole entry partner): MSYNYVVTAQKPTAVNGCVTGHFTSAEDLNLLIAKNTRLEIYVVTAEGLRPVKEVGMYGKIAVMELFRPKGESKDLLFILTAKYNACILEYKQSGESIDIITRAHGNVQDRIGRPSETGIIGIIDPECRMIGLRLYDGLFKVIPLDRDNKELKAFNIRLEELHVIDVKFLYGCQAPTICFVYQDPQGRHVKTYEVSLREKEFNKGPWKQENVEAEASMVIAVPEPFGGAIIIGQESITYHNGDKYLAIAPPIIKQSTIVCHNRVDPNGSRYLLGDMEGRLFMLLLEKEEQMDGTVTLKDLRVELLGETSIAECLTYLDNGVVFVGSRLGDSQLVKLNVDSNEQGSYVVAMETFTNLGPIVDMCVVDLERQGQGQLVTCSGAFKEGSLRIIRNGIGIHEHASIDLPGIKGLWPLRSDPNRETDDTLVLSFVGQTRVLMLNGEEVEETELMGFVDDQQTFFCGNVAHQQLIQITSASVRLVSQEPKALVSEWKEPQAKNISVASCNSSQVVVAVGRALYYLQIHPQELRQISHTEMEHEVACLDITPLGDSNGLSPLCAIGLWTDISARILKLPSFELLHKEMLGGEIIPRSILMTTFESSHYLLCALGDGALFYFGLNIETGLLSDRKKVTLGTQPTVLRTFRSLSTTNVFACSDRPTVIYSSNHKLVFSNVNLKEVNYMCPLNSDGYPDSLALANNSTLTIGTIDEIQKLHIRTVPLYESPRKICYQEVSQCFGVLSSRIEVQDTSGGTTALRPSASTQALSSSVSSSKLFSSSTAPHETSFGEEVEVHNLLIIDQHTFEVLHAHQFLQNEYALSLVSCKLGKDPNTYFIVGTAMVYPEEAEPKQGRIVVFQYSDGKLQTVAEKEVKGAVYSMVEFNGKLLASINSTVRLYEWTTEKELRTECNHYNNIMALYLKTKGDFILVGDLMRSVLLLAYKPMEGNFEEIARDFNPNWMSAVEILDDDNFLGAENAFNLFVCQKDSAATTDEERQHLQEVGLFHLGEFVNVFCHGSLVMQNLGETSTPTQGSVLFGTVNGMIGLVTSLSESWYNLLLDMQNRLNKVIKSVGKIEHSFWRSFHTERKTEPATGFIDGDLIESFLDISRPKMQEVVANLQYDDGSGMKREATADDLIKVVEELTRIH
T1 sequence (P48729 whole entry): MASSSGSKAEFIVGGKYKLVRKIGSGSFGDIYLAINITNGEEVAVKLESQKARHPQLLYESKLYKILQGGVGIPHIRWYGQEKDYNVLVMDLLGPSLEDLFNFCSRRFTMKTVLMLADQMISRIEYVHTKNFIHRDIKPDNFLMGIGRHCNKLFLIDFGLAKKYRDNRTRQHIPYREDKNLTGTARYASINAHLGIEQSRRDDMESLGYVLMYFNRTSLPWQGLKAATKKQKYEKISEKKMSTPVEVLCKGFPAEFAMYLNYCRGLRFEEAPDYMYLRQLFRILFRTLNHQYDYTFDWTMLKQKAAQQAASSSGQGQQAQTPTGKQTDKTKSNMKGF
T1 sequence (Q96SW2 whole entry): as the sequence (Q96SW2 whole entry) above
T1 sequence (Q16531 whole entry partner): as the sequence (Q16531 whole entry partner) above
T3 sequence (P15170 whole entry): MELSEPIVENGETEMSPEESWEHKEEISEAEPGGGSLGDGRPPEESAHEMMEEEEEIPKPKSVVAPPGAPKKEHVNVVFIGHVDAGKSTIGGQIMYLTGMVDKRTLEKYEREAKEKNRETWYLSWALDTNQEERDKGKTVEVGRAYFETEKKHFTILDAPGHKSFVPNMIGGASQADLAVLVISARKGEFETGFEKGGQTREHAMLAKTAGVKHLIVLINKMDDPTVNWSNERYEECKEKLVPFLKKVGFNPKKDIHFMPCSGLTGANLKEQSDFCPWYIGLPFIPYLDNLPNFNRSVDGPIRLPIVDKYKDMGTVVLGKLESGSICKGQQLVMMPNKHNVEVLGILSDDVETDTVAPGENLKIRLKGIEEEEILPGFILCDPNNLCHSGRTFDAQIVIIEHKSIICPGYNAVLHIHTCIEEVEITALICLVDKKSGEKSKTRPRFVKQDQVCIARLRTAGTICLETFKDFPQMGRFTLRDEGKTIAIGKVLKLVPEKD
T3 sequence (Q96SW2 whole entry): as the sequence (Q96SW2 whole entry) above
T3 sequence (Q16531 whole entry partner): as the sequence (Q16531 whole entry partner) above
T6 sequence (P30291 whole entry): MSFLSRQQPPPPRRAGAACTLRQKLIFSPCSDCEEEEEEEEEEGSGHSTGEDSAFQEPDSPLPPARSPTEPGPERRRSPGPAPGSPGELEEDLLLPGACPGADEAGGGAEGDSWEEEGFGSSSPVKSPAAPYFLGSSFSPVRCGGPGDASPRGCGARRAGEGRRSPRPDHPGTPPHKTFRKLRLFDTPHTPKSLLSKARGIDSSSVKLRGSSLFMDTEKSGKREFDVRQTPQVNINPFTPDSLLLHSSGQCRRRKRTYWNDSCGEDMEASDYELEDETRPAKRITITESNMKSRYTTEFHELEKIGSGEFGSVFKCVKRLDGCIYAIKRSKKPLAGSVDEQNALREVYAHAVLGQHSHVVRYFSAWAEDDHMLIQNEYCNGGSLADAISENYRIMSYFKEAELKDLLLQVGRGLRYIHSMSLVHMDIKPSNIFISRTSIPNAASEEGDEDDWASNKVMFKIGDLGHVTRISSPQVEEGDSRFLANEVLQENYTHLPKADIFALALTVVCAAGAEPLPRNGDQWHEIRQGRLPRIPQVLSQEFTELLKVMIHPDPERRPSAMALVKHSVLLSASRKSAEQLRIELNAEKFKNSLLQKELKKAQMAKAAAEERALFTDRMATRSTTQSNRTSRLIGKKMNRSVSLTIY
T6 sequence (Q96SW2 whole entry): as the sequence (Q96SW2 whole entry) above
T6 sequence (Q16531 whole entry partner): as the sequence (Q16531 whole entry partner) above
T2 sequence (Q13422 whole entry): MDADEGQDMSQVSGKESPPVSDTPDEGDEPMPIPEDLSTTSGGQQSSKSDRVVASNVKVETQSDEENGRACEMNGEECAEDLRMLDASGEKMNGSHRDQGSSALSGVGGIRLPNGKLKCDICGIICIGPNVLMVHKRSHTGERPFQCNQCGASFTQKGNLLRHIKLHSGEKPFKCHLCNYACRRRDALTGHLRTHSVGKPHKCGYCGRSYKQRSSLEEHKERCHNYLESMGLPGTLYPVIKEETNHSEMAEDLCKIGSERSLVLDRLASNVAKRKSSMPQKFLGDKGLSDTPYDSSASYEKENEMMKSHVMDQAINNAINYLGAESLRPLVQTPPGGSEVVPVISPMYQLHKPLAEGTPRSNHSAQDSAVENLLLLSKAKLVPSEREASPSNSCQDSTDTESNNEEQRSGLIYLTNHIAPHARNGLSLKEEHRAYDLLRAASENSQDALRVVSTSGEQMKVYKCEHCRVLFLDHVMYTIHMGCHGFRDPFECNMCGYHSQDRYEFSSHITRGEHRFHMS
T2 sequence (Q96SW2 whole entry): as the sequence (Q96SW2 whole entry) above
T2 sequence (Q16531 whole entry partner): as the sequence (Q16531 whole entry partner) above
T7 sequence (Q96SW2 whole entry): as the sequence (Q96SW2 whole entry) above

Row | SMILES | IC50 (MV-4-11; [2]) | IC50 (MV-4-11; read-out: inhibitory activity (IC50, nM) against tumor cells proliferation, MV-4-11) | IC50 [1] | CK1a substrate protein remaining % (CK1α) | IKZF 1 substrate protein remaining % (IKZF1) | GSPT1 substrate protein remaining % (GSPT1) | IKZF3 substrate protein remaining % (IKZF3) | IKZF2 substrate protein remaining % (IKZF2) | Weel substrate protein remaining % (WEE1)
1 | O=C1CCC(N2C(=O)c3ccc(CN4CCN(c5nccc(Cl)c5Br)CC4)cc3C2=O)C(=O)N1 (centres unmarked) [GT-06601, 5-((4-(3-bromo-4-chloropyridin-2-yl)piperazin-1-yl)methyl)-2-(2,6-dioxopiperidin-3-yl)isoindoline-1,3-dione] | 100 to 500 nM | – | – | B (80%< substrate protein remaining %≤ 100%) | B (80%< substrate protein remaining %≤ 100%) | A (0% ≤ substrate protein remaining % ≤ 80%) | B (80%< substrate protein remaining %≤ 100%) | B (80%< substrate protein remaining %≤ 100%) | B (80%< substrate protein remaining %≤ 100%)
2 | O=C1CCC(N2C(=O)c3ccc(CN4CC=C(c5ccnc(F)c5F)CC4)cc3C2=O)C(=O)N1 (centres unmarked) [GT-06614, 5-((2',3'-difluoro-3,6-dihydro-[4,4'-bipyridin]-1(2H)-yl)methyl)-2-(2,6-dioxopiperidin-3-yl)isoindoline-1,3-dione] | 10 to 50 nM | – | – | A (0% ≤ substrate protein remaining % ≤ 80%) | B (80%< substrate protein remaining %≤ 100%) | A (0% ≤ substrate protein remaining % ≤ 80%) | B (80%< substrate protein remaining %≤ 100%) | B (80%< substrate protein remaining %≤ 100%) | B (80%< substrate protein remaining %≤ 100%)
3 | O=C1CCC(N2C(=O)c3ccc(CN4CCN(c5ccnc(Cl)c5F)CC4)cc3C2=O)C(=O)N1 (centres unmarked) [GT-06620, 5-((4-(2-chloro-3-fluoropyridin-4-yl)piperazin-1-yl)methyl)-2-(2,6-dioxopiperidin-3-yl)isoindoline-1,3-dione] | 100 to 500 nM | – | – | B (80%< substrate protein remaining %≤ 100%) | B (80%< substrate protein remaining %≤ 100%) | A (0% ≤ substrate protein remaining % ≤ 80%) | A (0% ≤ substrate protein remaining % ≤ 80%) | B (80%< substrate protein remaining %≤ 100%) | B (80%< substrate protein remaining %≤ 100%)
4 | O=C1CCC(N2C(=O)c3ccc(CN4CCN(c5ncnc(Cl)c5Cl)CC4)cc3C2=O)C(=O)N1 (centres unmarked) [GT-06623, 5-((4-(5,6-dichloropyrimidin-4-yl)piperazin-1-yl)methyl)-2-(2,6-dioxopiperidin-3-yl)isoindoline-1,3-dione] | 100 to 500 nM | – | – | – | – | – | – | – | –
5 | O=C1CCC(N2C(=O)c3ccc(CN4CCC(N5CCc6cc(F)ccc65)CC4)cc3C2=O)C(=O)N1 (centres unmarked) [GT-06637, 2-(2,6-dioxopiperidin-3-yl)-5-((4-(5-fluoroindolin-1-yl)piperidin-1-yl)methyl)isoindoline-1,3-dione] | 50 to 100 nM | – | – | A (0% ≤ substrate protein remaining % ≤ 80%) | A (0% ≤ substrate protein remaining % ≤ 80%) | A (0% ≤ substrate protein remaining % ≤ 80%) | A (0% ≤ substrate protein remaining % ≤ 80%) | A (0% ≤ substrate protein remaining % ≤ 80%) | A (0% ≤ substrate protein remaining % ≤ 80%)
6 | O=C1CCC(N2C(=O)c3ccc(CN4CCC(n5cnc6cc(F)ccc65)CC4)cc3C2=O)C(=O)N1 (centres unmarked) [GT-06638, 2-(2,6-dioxopiperidin-3-yl)-5-((4-(5-fluoro-1H-benzo[d]imidazol-1-yl)piperidin-1-yl)methyl)isoindoline-1,3-dione] | 500 to 1000 nM | – | – | A (0% ≤ substrate protein remaining % ≤ 80%) | B (80%< substrate protein remaining %≤ 100%) | A (0% ≤ substrate protein remaining % ≤ 80%) | B (80%< substrate protein remaining %≤ 100%) | B (80%< substrate protein remaining %≤ 100%) | A (0% ≤ substrate protein remaining % ≤ 80%)

Further lines, with some results ahead:

Row | IC50 (MV-4-11; [2]) | IC50 (MV-4-11; read-out: inhibitory activity (IC50, nM) against tumor cells proliferation, MV-4-11) | IC50 [1] | SMILES | CK1a substrate protein remaining % (CK1α) | IKZF 1 substrate protein remaining % (IKZF1) | GSPT1 substrate protein remaining % (GSPT1) | IKZF3 substrate protein remaining % (IKZF3) | IKZF2 substrate protein remaining % (IKZF2) | Weel substrate protein remaining % (WEE1)
7 | 100 to 500 nM | – | – | O=C1CCC(N2C(=O)c3ccc(CN4CCN(c5cc(Cl)nnc5Cl)CC4)cc3C2=O)C(=O)N1 (centres unmarked) [GT-06625, 5-((4-(3,6-dichloropyridazin-4-yl)piperazin-1-yl)methyl)-2-(2,6-dioxopiperidin-3-yl)isoindoline-1,3-dione] | B (80%< substrate protein remaining %≤ 100%) | B (80%< substrate protein remaining %≤ 100%) | A (0% ≤ substrate protein remaining % ≤ 80%) | B (80%< substrate protein remaining %≤ 100%) | B (80%< substrate protein remaining %≤ 100%) | B (80%< substrate protein remaining %≤ 100%)
8 | – | 50 to 100 nM | – | O=C1CCC(N2C(=O)c3ccc(CN4CCN(c5ncncn5)CC4)cc3C2=O)C(=O)N1 (centres unmarked) [GT-06626, 5-((4-(1,3,5-triazin-2-yl)piperazin-1-yl)methyl)-2-(2,6-dioxopiperidin-3-yl)isoindoline-1,3-dione] | – | B (80%< substrate protein remaining %≤ 100%) | A (0% ≤ substrate protein remaining % ≤ 80%) | B (80%< substrate protein remaining %≤ 100%) | B (80%< substrate protein remaining %≤ 100%) | –
9 | 100 to 500 nM | – | – | O=C1CCC(N2C(=O)c3ccc(CN4CCN(c5nsc6cc(F)ccc56)CC4)cc3C2=O)C(=O)N1 (centres unmarked) [GT-06631, 2-(2,6-dioxopiperidin-3-yl)-5-((4-(6-fluorobenzo[d]isothiazol-3-yl)piperazin-1-yl)methyl)isoindoline-1,3-dione] | A (0% ≤ substrate protein remaining % ≤ 80%) | B (80%< substrate protein remaining %≤ 100%) | A (0% ≤ substrate protein remaining % ≤ 80%) | B (80%< substrate protein remaining %≤ 100%) | B (80%< substrate protein remaining %≤ 100%) | A (0% ≤ substrate protein remaining % ≤ 80%)
10 | 100 to 500 nM | – | 1500 to 1900 nM | Cc1nc(C2=CCN(Cc3ccc4c(c3)C(=O)N(C3CCC(=O)NC3=O)C4=O)CC2)c2c3c(sc2n1)CCCC3 (centres unmarked) [GT-06679, 2-(2,6-dioxopiperidin-3-yl)-5-((4-(2-methyl-5,6,7,8-tetrahydrobenzo[4,5]thieno[2,3-d]pyrimidin-4-yl)-3,6-dihydropyridin-1(2H)-yl)methyl)isoindoline-1,3-dione] | B (80%< substrate protein remaining %≤ 100%) | B (80%< substrate protein remaining %≤ 100%) | B (80%< substrate protein remaining %≤ 100%) | A (0% ≤ substrate protein remaining % ≤ 80%) | B (80%< substrate protein remaining %≤ 100%) | A (0% ≤ substrate protein remaining % ≤ 80%)
11 | 100 to 500 nM | – | – | O=C1CCC(N2C(=O)c3ccc(CN4CCN(c5nc(N6CCOCC6)nc6c5SCC6)CC4)cc3C2=O)C(=O)N1 (centres unmarked) [GT-06712, 2-(2,6-dioxopiperidin-3-yl)-5-((4-(2-morpholino-6,7-dihydrothieno[3,2-d]pyrimidin-4-yl)piperazin-1-yl)methyl)isoindoline-1,3-dione] | B (80%< substrate protein remaining %≤ 100%) | B (80%< substrate protein remaining %≤ 100%) | A (0% ≤ substrate protein remaining % ≤ 80%) | B (80%< substrate protein remaining %≤ 100%) | B (80%< substrate protein remaining %≤ 100%) | B (80%< substrate protein remaining %≤ 100%)
12 | 10 to 50 nM | – | – | O=C1CCC(N2C(=O)c3ccc(CN4CCN(c5nc(N6CCOCC6)nc6ccsc56)CC4)cc3C2=O)C(=O)N1 (centres unmarked) [GT-06717, 2-(2,6-dioxopiperidin-3-yl)-5-((4-(2-morpholinothieno[3,2-d]pyrimidin-4-yl)piperazin-1-yl)methyl)isoindoline-1,3-dione] | B (80%< substrate protein remaining %≤ 100%) | A (0% ≤ substrate protein remaining % ≤ 80%) | A (0% ≤ substrate protein remaining % ≤ 80%) | B (80%< substrate protein remaining %≤ 100%) | B (80%< substrate protein remaining %≤ 100%) | A (0% ≤ substrate protein remaining % ≤ 80%)
